# Data as given in US20140024638A1, “TREATMENT OF COGNITIVE DYSFUNCTION IN SCHIZOPHRENIA” (TARGACEPT, INC., priority 2011, published 2014).
# “Also recorded” adds a separate entry of the source.
# Experiments:
# Format in all cases: in vivo, human
# [1] = tested on: patients with schizophrenia; assay: CogState Schizophrenia Battery Composite score, Phase 2 trial; details: for CogState Composite score: Mean (SE): tobacco users meeting data integrity criteria; for CogState Composite score: Mean (SEM): total population, subjects meeting data integrity criteria
# Experimental: As provided in the above-referenced brochure, CogState is a provider of cognitive testing products and services that predominantly caters to the global pharmaceutical industry. The Schizophrenia Cognitive Test Battery covers all domains identified by MATRICS initiative; requires around 35 minutes for administration; is sensitive to the effects of novel compounds and licensed medication; is sensitive to the effects of medication in groups or individual patients; and the outcome measures are related to functional status.
# (§1) The double blind, placebo controlled Phase 2 trial was conducted at 7 sites in the United States and 12 sites in India. […] Of the randomized patients, approximately 69% were male and approximately 46% were users of tobacco products. […] The primary efficacy outcome measure was GMLT, and the trial included a number of other scales as secondary efficacy outcome measures.
# [2] = tested on: patients with schizophrenia; assay: Clinical Global Impression - Global Improvement (CGI-I, CGI Global Change), Phase 2 trial; details: for CGI Global Change: Adjusted Mean / CGI Global Change: Mean Difference ± SE between TC-5619 and Placebo (Placebo-TC5619): All Patients; for CGI-I: Mean (SE): tobacco users; for CGI-I: Mean (SEM): total population
# Experimental: as §1
# [3] = tested on: patients with schizophrenia; assay: CogState Social-Emotional Cognition task, Phase 2 trial; details: for CogState Social-Emotional Cognition: Mean (SE): tobacco users meeting data integrity criteria; for CogState Social-Emotional Cognition: Mean (SEM): total population, subjects meeting data integrity criteria
# Experimental: as §1
# [4] = tested on: patients with schizophrenia; assay: CogState Detection task (psychomotor speed), Phase 2 trial; details: for CogState Detection: Mean (SE): tobacco users meeting data integrity criteria; for CogState Detection: Mean (SEM): total population, subjects meeting data integrity criteria
# Experimental: as §1
# [5] = tested on: patients with schizophrenia; assay: Scale for Assessment of Negative Symptoms (SANS), Phase 2 trial; details: for SANS TOTAL SCORE: Adjusted Mean / SANS TOTAL SCORE: Mean Difference ± SE between TC-5619 and Placebo (Placebo-TC5619): All Patients; for SANS: Mean (SE): tobacco users; for SANS: Mean (SEM): total population
# Experimental: as §1
# [6] = tested on: patients with schizophrenia; assay: Phase 2 trial, safety and tolerability
# Experimental: as §1
# [7] = tested on: patients with schizophrenia; assay: Groton Maze Learning Task (GMLT) of the CogState Schizophrenia Battery, Phase 2 trial; details: All Patients; Week 1, 1 mg daily; SE 0.01; placebo −0.02
# Experimental: as §1
# The GMLT is a computerized test designed to assess executive function (the ability to organize cognitive processes, including the ability to plan, prioritize, stop and start activities, shift from one activity to another activity and to monitor one's own behavior). Impaired executive function is thought to be an important aspect of cognitive dysfunction in schizophrenia.
smiles,measurement,setting,value
"O=C(N[C@@H]1C2CCN(CC2)[C@H]1Cc1cccnc1)c1cc2ccccc2o1 (single isomer, unassigned) [TC-5619]","CogState composite score, result in words",[1]; in vivo,statistically significant results of improvement
same,CogState Composite score: Mean (SE),"[1]; Week 4, 1 mg daily, 1-tailed p = 0.471",0.007 0.099); p = 0.471
same,CogState Composite score: Mean (SE),"[1]; Week 8, 5 mg daily, 1-tailed p = 0.614",−0.029 (0.101); p = 0.614
same,CogState Composite score: Mean (SE),"[1]; Week 12, 25 mg daily, 1-tailed p = 0.098",0.129 0.100); p = 0.098 ^
same,CogState Composite score: Mean (SEM),"[1]; Week 4, 1 mg daily, 1-tailed p = 0.838",−0.066 (0.066); p = 0.838
same,CogState Composite score: Mean (SEM),"[1]; Week 8, 5 mg daily, 1-tailed p = 0.821",−0.062 .068); p = 0.821^
same,CogState Composite score: Mean (SEM),"[1]; Week 12, 25 mg daily, 1-tailed p = 0.326",0.030 0.067); p = 0.326 ^
same,CGI Global Change: Adjusted Mean,"[2]; Week 1, 1 mg daily, SE 0.15, placebo 3.80",3.77
same,CGI Global Change: Mean Difference ± SE between TC-5619 and Placebo (Placebo-TC5619),"[2]; Week 1, 1 mg daily, one-sided 90% CI (−0.06, ∞), one-sided P 0.3434",0.03 ± 0.07
same,CGI Global Change: Adjusted Mean,"[2]; Week 4, 1 mg daily, SE 0.16, placebo 3.64",3.49
same,CGI Global Change: Mean Difference ± SE between TC-5619 and Placebo (Placebo-TC5619),"[2]; Week 4, 1 mg daily, one-sided 90% CI (0.04, ∞), one-sided P 0.0485",0.15 ± 0.09
same,CGI Global Change: Adjusted Mean,"[2]; Week 8, 5 mg daily, SE 0.16, placebo 3.30",3.22
same,CGI Global Change: Mean Difference ± SE between TC-5619 and Placebo (Placebo-TC5619),"[2]; Week 8, 5 mg daily, one-sided 90% CI (−0.07, ∞), one-sided P 0.2533",0.08 ± 0.12
same,CGI Global Change: Adjusted Mean,"[2]; Week 12, 25 mg daily, SE 0.17, placebo 3.18",3.03
same,CGI Global Change: Mean Difference ± SE between TC-5619 and Placebo (Placebo-TC5619),"[2]; Week 12, 25 mg daily, one-sided 90% CI (−0.03, ∞), one-sided P 0.1502",0.15 ± 0.14
same,"Clinical Global Impression - Global Improvement, result in words","[2]; secondary outcome measure, investigator assessment of overall response",encouraging efficacy signals
same,CGI-I: Mean (SE),"[2]; Week 4, 1 mg daily, 1-tailed p = 0.047",0.25 (0.14); p = 0.047
same,CGI-I: Mean (SE),"[2]; Week 8, 5 mg daily, 1-tailed p = 0.075",0.24 (0.16); p = 0.075
same,CGI-I: Mean (SE),"[2]; Week 12, 25 mg daily, 1-tailed p = 0.189",0.18 (0.20); p = 0.189
same,CGI-I: Mean (SEM),"[2]; Week 4, 1 mg daily, 1-tailed p = 0.049",0.15 (0.09); p = 0.049
same,CGI-I: Mean (SEM),"[2]; Week 8, 5 mg daily, 1-tailed p = 0.253",0.08 (0.12); p = 0.253
same,CGI-I: Mean (SEM),"[2]; Week 12, 25 mg daily, 1-tailed p = 0.150",0.15 (0.14); p = 0.150
same,CogState Social-Emotional Cognition: Mean (SE),"[3]; Week 4, 1 mg daily, 1-tailed p = 0.632",−0.010 (0.028); p = 0.632
same,CogState Social-Emotional Cognition: Mean (SE),"[3]; Week 8, 5 mg daily, 1-tailed p = 0.625",−0.009 (0.029); p = 0.625
same,CogState Social-Emotional Cognition: Mean (SE),"[3]; Week 12, 25 mg daily, 1-tailed p = 0.752",−0.019 (0.027); p = 0.752
same,CogState Social-Emotional Cognition: Mean (SEM),"[3]; Week 4, 1 mg daily, 1-tailed p = 0.259",0.013 (0.020); p = 0.259
same,CogState Social-Emotional Cognition: Mean (SEM),"[3]; Week 8, 5 mg daily, 1-tailed p = 0.217",0.015 (0.020); p = 0.217
same,CogState Social-Emotional Cognition: Mean (SEM),"[3]; Week 12, 25 mg daily, 1-tailed p = 0.546",−0.002 (0.020); p = 0.546
same,"CogState detection (psychomotor speed), result in words",[4]; in vivo,statistically significant results of improvement
same,CogState Detection: Mean (SE),"[4]; Week 4, 1 mg daily, 1-tailed p = 0.254",−0.014 (0.021); p = 0.254
same,CogState Detection: Mean (SE),"[4]; Week 8, 5 mg daily, 1-tailed p = 0.491",−0.000 (0.021); p = 0.491
same,CogState Detection: Mean (SE),"[4]; Week 12, 25 mg daily, 1-tailed p = 0.265",−0.013 0.021); p = 0.265 ^
same,CogState Detection: Mean (SEM),"[4]; Week 4, 1 mg daily, 1-tailed p = 0.693",0.007 (0.015); p = 0.693
same,CogState Detection: Mean (SEM),"[4]; Week 8, 5 mg daily, 1-tailed p = 0.650",0.006 (0.014) p = 0.650^
same,CogState Detection: Mean (SEM),"[4]; Week 12, 25 mg daily, 1-tailed p = 0.567",0.002 (0.015) p = 0.567^
same,SANS TOTAL SCORE: Adjusted Mean,"[5]; Week 1, 1 mg daily, SE 0.93, placebo −0.92",−1.20
same,SANS TOTAL SCORE: Mean Difference ± SE between TC-5619 and Placebo (Placebo-TC5619),"[5]; Week 1, 1 mg daily, one-sided 90% CI (−0.77, ∞), one-sided P 0.3647",0.28 ± 0.82
same,SANS TOTAL SCORE: Adjusted Mean,"[5]; Week 4, 1 mg daily, SE 1.11, placebo −2.74",−3.52
same,SANS TOTAL SCORE: Mean Difference ± SE between TC-5619 and Placebo (Placebo-TC5619),"[5]; Week 4, 1 mg daily, one-sided 90% CI (−0.74, ∞), one-sided P 0.2547",0.78 ± 1.18
same,SANS TOTAL SCORE: Adjusted Mean,"[5]; Week 8, 5 mg daily, SE 1.25, placebo −5.55",−7.25
same,SANS TOTAL SCORE: Mean Difference ± SE between TC-5619 and Placebo (Placebo-TC5619),"[5]; Week 8, 5 mg daily, one-sided 90% CI (−0.14, ∞), one-sided P 0.1184",1.71 ± 1.44
same,SANS TOTAL SCORE: Adjusted Mean,"[5]; Week 12, 25 mg daily, SE 1.40, placebo −6.23",−9.93
same,SANS TOTAL SCORE: Mean Difference ± SE between TC-5619 and Placebo (Placebo-TC5619),"[5]; Week 12, 25 mg daily, one-sided 90% CI (1.53, ∞), one-sided P 0.0147",3.70 ± 1.68
same,"SANS, result in words","[5]; secondary outcome measure, investigator assessment of negative symptoms",encouraging efficacy signals
same,SANS: Mean (SE),"[5]; Week 4, 1 mg daily, 1-tailed p = 0.098",2.74 (2.10); p = 0.098
same,SANS: Mean (SE),"[5]; Week 8, 5 mg daily, 1-tailed p = 0.054",4.00 (2.45); p = 0.054
same,SANS: Mean (SE),"[5]; Week 12, 25 mg daily, 1-tailed p = 0.033",4.86 (2.58); p = 0.033
same,SANS: Mean (SEM),"[5]; Week 4, 1 mg daily, 1-tailed p = 0.255",0.78 (1.18); p = 0.255
same,SANS: Mean (SEM),"[5]; Week 8, 5 mg daily, 1-tailed p = 0.118",1.71 (1.44); p = 0.118
same,SANS: Mean (SEM),"[5]; Week 12, 25 mg daily, 1-tailed p = 0.015",3.70 (1.68); p = 0.015
same,"discontinuations due to adverse events, difference to placebo dose group",[6]; Phase 2 trial,no clinically significant difference
same,tolerability,"[6]; Phase 2 trial, 12 weeks, 1/5/25 mg daily, listed as (2S,3R)—N-(2-((3-pyridinyl)methyl)-1-azabicyclo[2.2.2]oct-3-yl)benzofuran-2-carb",well tolerated; also recorded: favorable tolerability profile
same,serious adverse events in the dose group,"[6]; one also in placebo dose group, considered by the investigator as not drug related",one
same,nausea (most frequent adverse event more common than in placebo cohort),"[6]; placebo 0%, mild to moderate in severity, never led to patient dropout",5%
same,GML (Total Error) LOG: Adjusted Mean,[7],−0.01
